# According to patent publication US20240148821A1, “PHARMACEUTICAL USE OF CYCLIC PEPTIDE COMPOUND” (CHUGAI SEIYAKU KABUSHIKI KAISHA, priority 2021, published 2024):
# Numbered stars: 1 amine (or outer) side, 2 acyl side, 3 side chain; on linkers, the order of the positions; unused ones are H or OH. Bridge positions count the residues as written; N and C are the ends. Square brackets hold non-standard residues; d marks the D form. Peptide text beside a SMILES is read from it. * marks the point of attachment. hPhe(3-Cl-4-CF3) = N[C@@H](CCc1ccc(C(F)(F)F)c(Cl)c1)C(=O)O; NMePhe(4-CF3) = CN[C@@H](Cc1ccc(C(F)(F)F)cc1)C(=O)O; NMePhe(4-Cl) = CN[C@@H](Cc1ccc(Cl)cc1)C(=O)O; NMedβ3hAla = C[C@H](CC(=O)[*:2])N(C)[*:1]; Leu(4,5-dehydro) = C=C(C)C[C@H](N)C(=O)O; Phe(3-Br) = N[C@@H](Cc1cccc(Br)c1)C(=O)O; Phe(3-I) = N[C@@H](Cc1cccc(I)c1)C(=O)O; X26 = CC(C)=CC[C@H](N[*:1])C(=O)[*:2]; NMeY = CN[C@@H](Cc1ccc(O)cc1)C(=O)O; NMeAoc(2) = CCCCCC[C@H](NC)C(=O)O; NMeD = CN[C@@H](CC(=O)O)C(=O)O; NMeL = CN[C@@H](CC(C)C)C(=O)O; Cba = N[C@@H](CC1CCC1)C(=O)O; NMeA = CN[C@@H](C)C(=O)O; NMeAib = CNC(C)(C)C(=O)O; Nle = CCCC[C@H](N)C(=O)O; Piperidide = C1CCN(*)CC1; Pra = C#CC[C@H](N)C(=O)O; Aze = O=C(O)[C@@H]1CCN1; Sar = CNCC(=O)O
# Test system: Human pancreatic cancer cell line AsPC-1 (G12D mutation Kras)
# Assay: AsPC-1 cell growth inhibition (AsPC-1 CGI)
# Format: cell-based
# Settings: read-out: AsPC-1 cell growth inhibition, 50% growth inhibitory concentration (IC50 value); 96 hours, CellTiter-Glo, values classified in ranges
# Description: Test compounds were serially dilated with dimethyl sulfoxide, and 200 nL was then dispensed to a U-bottom 96-well plate using Labcyte Echo. […] The cell suspension was dispensed to a. plate containing a test compound at 100 μL per well and incubated at 37° C. in a 5% carbon dioxide gas incubator. 96 hours later, 80 μL of CellTiter-Glo (Promega) was added to each well and fluorescence was measured.
row,Structure (SMILES),IC50 [nM]
1,CC[C@H](C)[C@@H]1NC(=O)[C@H](CC(C)C)N(C)C(=O)C[C@@H](C)N(C)C(=O)[C@H](CC(C)C)NC(=O)C(C)(C)N(C)C(=O)[C@H](CC(C)C)NC(=O)[C@H](CCc2ccc(C(F)(F)F)c(Cl)c2)NC(=O)CN(C)C(=O)[C@H](Cc2ccc(C(F)(F)F)cc2)N(C)C(=O)[C@@H]2CCN2C(=O)CN(C)C1=O [Compound 1403] (cyclo([Aze][NMePhe(4-CF3)][Sar][hPhe(3-Cl-4-CF3)]L[NMeAib]L[NMedβ3hAla][NMeL]I[Sar])),> 500
2,CCCC[C@@H]1NC(=O)[C@H](Cc2cccc(Br)c2)NC(=O)CN(C)C(=O)[C@H](Cc2ccc(Cl)cc2)N(C)C(=O)CN(C)C(=O)CN(C)C(=O)[C@H]([C@@H](C)CC)NC(=O)[C@H](CC(C)C)N(C)C(=O)C[C@@H](C(=O)N2CCCCC2)N(C)C(=O)[C@H](CC(C)C)NC(=O)C(C)(C)N(C)C1=O [Compound 1404] ([NMeL]I[Sar][Sar][NMePhe(4-Cl)][Sar][Phe(3-Br)][Nle][NMeAib]L[NMeD]-Piperidide; lactam N-11),> 500
3,"C=C(C)C[C@@H]1NC(=O)[C@H](Cc2cccc(I)c2)NC(=O)CN(C)C(=O)[C@H](Cc2ccc(Cl)cc2)N(C)C(=O)[C@@H]2CCN2C(=O)CN(C)C(=O)[C@H]([C@@H](C)CC)NC(=O)[C@H](CC(C)C)N(C)C(=O)C[C@@H](C(=O)N2CCCCC2)N(C)C(=O)[C@H](CC(C)C)NC(=O)C(C)(C)N(C)C1=O [Compound 1414] ([NMeL]I[Sar][Aze][NMePhe(4-Cl)][Sar][Phe(3-I)][Leu(4,5-dehydro)][NMeAib]L[NMeD]-Piperidide; lactam N-11)",> 500
4,CCCC[C@@H]1NC(=O)[C@H](Cc2cccc(Br)c2)NC(=O)CN(C)C(=O)[C@H](Cc2ccc(Cl)cc2)N(C)C(=O)[C@@H]2CCN2C(=O)[C@H](C)N(C)C(=O)[C@H]([C@@H](C)CC)NC(=O)[C@H](CC(C)C)N(C)C(=O)C[C@@H](C(=O)N2CCCCC2)N(C)C(=O)[C@H](CC(C)C)NC(=O)C(C)(C)N(C)C1=O [Compound 1415] ([NMeL]I[NMeA][Aze][NMePhe(4-Cl)][Sar][Phe(3-Br)][Nle][NMeAib]L[NMeD]-Piperidide; lactam N-11),> 500
5,CCCCCC[C@H]1C(=O)N[C@@H]([C@@H](C)CC)C(=O)N(C)CC(=O)N2CC[C@H]2C(=O)N(C)[C@@H](Cc2ccc(OC)cc2)C(=O)N(C)CC(=O)N[C@@H](Cc2cccc(I)c2)C(=O)N[C@@H](CCCC)C(=O)N(C)C(C)(C)C(=O)N[C@@H](CC(C)C)C(=O)N(C)[C@H](C(=O)N2CCCCC2)CC(=O)N1C [Compound 1417] ([NMeAoc(2)]I[Sar][Aze][NMeY](Me)[Sar][Phe(3-I)][Nle][NMeAib]L[NMeD]-Piperidide; lactam N-11),> 500
6,CC[C@H](C)[C@@H]1NC(=O)[C@H](CC(C)C)N(C)C(=O)C[C@@H](C(=O)N2CCCCC2)N(C)C(=O)[C@H](CC(C)C)NC(=O)C(C)(C)N(C)C(=O)[C@H](CC=C(C)C)NC(=O)[C@H](Cc2cccc(I)c2)NC(=O)CN(C)C(=O)[C@H](Cc2ccc(Cl)cc2)N(C)C(=O)[C@@H]2CCN2C(=O)[C@H](C)N(C)C1=O [Compound 1419] ([NMeL]I[NMeA][Aze][NMePhe(4-Cl)][Sar][Phe(3-I)][X26][NMeAib]L[NMeD]-Piperidide; lactam N-11),> 500
7,"C=C(C)C[C@@H]1NC(=O)[C@H](Cc2cccc(I)c2)NC(=O)CN(C)C(=O)[C@H](Cc2ccc(Cl)cc2)N(C)C(=O)CN(C)C(=O)CN(C)C(=O)[C@H]([C@@H](C)CC)NC(=O)[C@H](CC(C)C)N(C)C(=O)C[C@@H](C(=O)N2CCCCC2)N(C)C(=O)[C@H](CC(C)C)NC(=O)C(C)(C)N(C)C1=O [Compound 1421] ([NMeL]I[Sar][Sar][NMePhe(4-Cl)][Sar][Phe(3-I)][Leu(4,5-dehydro)][NMeAib]L[NMeD]-Piperidide; lactam N-11)",> 500
8,CCCC[C@@H]1NC(=O)[C@H](Cc2cccc(I)c2)NC(=O)CN(C)C(=O)[C@H](Cc2ccc(Cl)cc2)N(C)C(=O)CN(C)C(=O)CN(C)C(=O)[C@H]([C@@H](C)CC)NC(=O)[C@H](CC(C)C)N(C)C(=O)C[C@@H](C(=O)N2CCCCC2)N(C)C(=O)[C@H](CC2CCC2)NC(=O)C(C)(C)N(C)C1=O [Compound 1422] ([NMeL]I[Sar][Sar][NMePhe(4-Cl)][Sar][Phe(3-I)][Nle][NMeAib][Cba][NMeD]-Piperidide; lactam N-11),> 500
9,C#CC[C@@H]1NC(=O)[C@H](Cc2cccc(I)c2)NC(=O)CN(C)C(=O)[C@H](Cc2ccc(C(F)(F)F)cc2)N(C)C(=O)[C@@H]2CCN2C(=O)CN(C)C(=O)[C@H]([C@@H](C)CC)NC(=O)[C@H](CC(C)C)N(C)C(=O)C[C@@H](C(=O)N2CCCCC2)N(C)C(=O)[C@H](CC(C)C)NC(=O)C(C)(C)N(C)C1=O [Compound 1425] ([NMeL]I[Sar][Aze][NMePhe(4-CF3)][Sar][Phe(3-I)][Pra][NMeAib]L[NMeD]-Piperidide; lactam N-11),> 500
10,C#CC[C@@H]1NC(=O)[C@H](Cc2cccc(I)c2)NC(=O)CN(C)C(=O)[C@H](Cc2ccc(Cl)cc2)N(C)C(=O)CN(C)C(=O)CN(C)C(=O)[C@H]([C@@H](C)CC)NC(=O)[C@H](CC(C)C)N(C)C(=O)C[C@@H](C(=O)N2CCCCC2)N(C)C(=O)[C@H](CC(C)C)NC(=O)C(C)(C)N(C)C1=O [Compound 1426] ([NMeL]I[Sar][Sar][NMePhe(4-Cl)][Sar][Phe(3-I)][Pra][NMeAib]L[NMeD]-Piperidide; lactam N-11),> 500
